Source: paper PMC4745983 (Frontiers in Cell and Developmental Biology, 2016)
In brackets after ≈: the same amount, converted by molar mass. Read-outs that look alike come from different tables or passages of the source. Marks after values point to notes of the source that are not given here. No end group written: not given here.

Assays:
[1] = test system: E. coli CECT101; assay type: cell-based, Escherichia coli; conditions: for Activity against E. coli CECT101 relative to nisin: comparison of MIC values / growth curves (Table 6, Figure 3)
Protocol: (§1) L. lactis strains were cultured in M17 broth supplemented with 0.5% (w/v) glucose (GM17) for genetic manipulation or in minimal expression medium (MEM) for protein expression at 30°C (Rink et al., [2005]). E. coli CECT101 was grown in Luria-Bertani broth aerated by shaking (200 rpm) at 37°C.
(§2) The indicator strains were first cultured until OD (600 nm) reached 0.5. When testing the MIC value, the culture was diluted 1000 times with the appropriate medium. All the tests were performed with a temperature controlled plate reader (Tecan infinite F200, Tecan Group AG) in a 96-well plate (Greiner Bio-one). The peptides were first diluted in gradient with medium and then mixed with diluted indicator strains. The final concentration of the peptides ranged from 0.00625 to 0.8 μM against L. lactis MG1363 and from 0.25 to 32 μM against E. coli CECT101 in 100 μl volume. The plate was incubated at 30°C or 37°C for 18 h depending on the indicator strain being L. lactis or E. coli, respectively. OD (600 nm) was checked every 30 min. For E. coli, 2 min of shaking was performed before every check. When testing the activity of nisin against E. coli in the presence of EDTA, an EDTA solution was prepared and added to a final concentration of 50, 110, or 250 μM. The minimal concentration of peptide causing no observed growth of indicator strains was considered as the MIC value.

[2] = test system: L. lactis MG1363; assay type: cell-based, Lactococcus lactis; conditions: for MIC value, L. lactis MG1363: MG1363, 18 h
Protocol: as §1, §2

[3] = test system: E. coli ATCC 25922; conditions: indicator strain E. coli ATCC 25922, [2013], cited from earlier work
Text: Table 1 List of selected peptides with anti-Gram-negative bacteria activity. | column: MIC(μM)

[4] = test system: E. coli BL21 AI; conditions: indicator strain E. coli BL21 AI, cited from earlier work
Text: To increase the activity of nisin against Gram-negative bacteria, both the inhibition activity and trans-outer membrane activity are important. When the first three rings of nisin are intact, the lipid II binding activity is stable. Retaining the pore formation activity is crucial. By further variation of the linker between the nisin part and the tail or searching for more effic ...

[5] = supernatant of L. lactis NZ9000 expression culture in MEM medium; conditions: Lactococcus lactis, 30°C, up to 3 h induction
[6] = supernatant of L. lactis NZ9000 expression culture in MEM medium, mixed with supernatant containing NisP; conditions: Lactococcus lactis, 30°C, up to 3 h induction; 1 h with NisP

## C=C1NC(=O)[C@H]([C@@H](C)CC)NC(=O)[C@H](NC(=O)/C(=C/C)NC(=O)[C@@H](N)[C@@H](C)CC)CSC[C@@H](C(=O)N[C@H]2C(=O)N3CCC[C@H]3C(=O)NCC(=O)N[C@H](C(=O)N[C@@H](CCCCN)C(=O)N[C@H]3C(=O)NCC(=O)N[C@@H](C)C(=O)N[C@@H](CC(C)C)C(=O)N[C@@H](CCSC)C(=O)NCC(=O)N[C@H](C(=O)N[C@@H](CC(N)=O)C(=O)N[C@@H](CCSC)C(=O)N[C@@H](CCCCN)C(=O)N[C@H](C(=O)N[C@@H](Cc4ccc(O)cc4)C(=O)N[C@H](C(=O)N4CCC[C@H]4C(=O)N[C@@H](CCCNC(=N)N)C(=O)N4CCC[C@H]4C(=O)N[C@@H](CCCNC(=N)N)C(=O)N4CCC[C@H]4C(=O)N4CCC[C@H]4C(=O)N[C@@H](Cc4c[nH]cn4)C(=O)N4CCC[C@H]4C(=O)N[C@@H](CCCNC(=N)N)C(=O)O)[C@@H](C)CC)C(C)C)CS[C@H]3C)CS[C@H]2C)NC(=O)[C@H](CC(C)C)NC1=O [GNT1]
[1]; CECT101, 18 h
  MIC value, E. coli CECT101: >16 µM
[1]
  Activity against E. coli CECT101 relative to nisin: lower net activity than nisin
[2]
  MIC value, L. lactis MG1363: 1 µM (≈ 3.61 µg/mL)

## C=C1NC(=O)[C@H]([C@@H](C)CC)NC(=O)[C@H](NC(=O)/C(=C/C)NC(=O)[C@@H](N)[C@@H](C)CC)CSC[C@@H](C(=O)N[C@H]2C(=O)N3CCC[C@H]3C(=O)NCC(=O)N[C@H](C(=O)N[C@@H](CCCCN)C(=O)N[C@H]3C(=O)NCC(=O)N[C@@H](C)C(=O)N[C@@H](CC(C)C)C(=O)N[C@@H](CCSC)C(=O)NCC(=O)N[C@H](C(=O)N[C@@H](CC(N)=O)C(=O)N[C@@H](CCSC)C(=O)N[C@@H](CCCCN)C(=O)N4CCC[C@H]4C(=O)N4CCC[C@H]4C(=O)N[C@@H](Cc4ccc(O)cc4)C(=O)N[C@@H](CC(C)C)C(=O)N4CCC[C@H]4C(=O)N[C@@H](CCCNC(=N)N)C(=O)N4CCC[C@H]4C(=O)N[C@@H](CCCNC(=N)N)C(=O)N4CCC[C@H]4C(=O)N4CCC[C@H]4C(=O)N[C@@H](CCCNC(=N)N)C(=O)N[C@@H](CCCNC(=N)N)C(=O)N[C@H](C(=O)N[C@@H](Cc4ccc(O)cc4)C(=O)N[C@@H](CC(N)=O)C(=O)N[C@@H](CCCNC(=N)N)C(=O)O)[C@@H](C)CC)CS[C@H]3C)CS[C@H]2C)NC(=O)[C@H](CC(C)C)NC1=O [GNT6]
[1]; CECT101, 18 h
  MIC value, E. coli CECT101: >16 µM
[1]
  Activity against E. coli CECT101 relative to nisin: lower net activity than nisin

## C=C1NC(=O)[C@H]([C@@H](C)CC)NC(=O)[C@H](NC(=O)/C(=C/C)NC(=O)[C@@H](N)[C@@H](C)CC)CSC[C@@H](C(=O)N[C@H]2C(=O)N3CCC[C@H]3C(=O)NCC(=O)N[C@H](C(=O)N[C@@H](CCCCN)C(=O)N[C@H]3C(=O)NCC(=O)N[C@@H](C)C(=O)N[C@@H](CC(C)C)C(=O)N[C@@H](CCSC)C(=O)NCC(=O)N[C@H](C(=O)N[C@@H](CC(N)=O)C(=O)N[C@@H](CCSC)C(=O)N[C@@H](CCCCN)C(=O)N4CCC[C@H]4C(=O)N[C@@H](CCCNC(=N)N)C(=O)N4CCC[C@H]4C(=O)N[C@@H](CCCNC(=N)N)C(=O)N4CCC[C@H]4C(=O)N4CCC[C@H]4C(=O)N[C@@H](CCCNC(=N)N)C(=O)N[C@@H](CCCNC(=N)N)C(=O)N[C@H](C(=O)N[C@@H](Cc4ccc(O)cc4)C(=O)N[C@@H](CC(N)=O)C(=O)N[C@@H](CCCNC(=N)N)C(=O)O)[C@@H](C)CC)CS[C@H]3C)CS[C@H]2C)NC(=O)[C@H](CC(C)C)NC1=O [GNT7]
[1]; CECT101, 18 h
  MIC value, E. coli CECT101: >16 µM
[1]
  Activity against E. coli CECT101 relative to nisin: lower net activity than nisin
[2]
  MIC value, L. lactis MG1363: 0.2 µM (≈ 0.74 µg/mL)
[2]; from MIC values
  Activity against L. lactis relative to GNT16: equal activity as GNT16

## C=C1NC(=O)[C@H]([C@@H](C)CC)NC(=O)[C@H](NC(=O)/C(=C/C)NC(=O)[C@@H](N)[C@@H](C)CC)CSC[C@@H](C(=O)N[C@H]2C(=O)N3CCC[C@H]3C(=O)NCC(=O)N[C@H](C(=O)N[C@@H](CCCCN)C(=O)N[C@H]3C(=O)NCC(=O)N[C@@H](C)C(=O)N[C@@H](CC(C)C)C(=O)N[C@@H](CCSC)C(=O)NCC(=O)N[C@H](C(=O)N[C@@H](CC(N)=O)C(=O)N[C@@H](CCSC)C(=O)N[C@@H](CCCCN)C(=O)N4CCC[C@H]4C(=O)N[C@@H](CCCNC(=N)N)C(=O)N4CCC[C@H]4C(=O)N4CCC[C@H]4C(=O)N[C@@H](Cc4c[nH]cn4)C(=O)N4CCC[C@H]4C(=O)N[C@@H](CCCNC(=N)N)C(=O)N[C@@H](CC(C)C)C(=O)O)CS[C@H]3C)CS[C@H]2C)NC(=O)[C@H](CC(C)C)NC1=O [GNT16-3rings]
[1]; CECT101, 18 h
  MIC value, E. coli CECT101: >32 µM
[1]
  Activity against E. coli CECT101 relative to nisin: lower net activity than nisin
[2]
  MIC value, L. lactis MG1363: 1 µM (≈ 3.09 µg/mL)

## C=C1NC(=O)[C@H]([C@@H](C)CC)NC(=O)[C@H](NC(=O)/C(=C/C)NC(=O)[C@@H](N)[C@@H](C)CC)CSC[C@@H](C(=O)N[C@H]2C(=O)N3CCC[C@H]3C(=O)NCC(=O)N[C@H](C(=O)N[C@@H](CCCCN)C(=O)N[C@H]3C(=O)NCC(=O)N[C@@H](C)C(=O)N[C@@H](CC(C)C)C(=O)N[C@@H](CCSC)C(=O)NCC(=O)N[C@H](C(=O)N[C@@H](CC(N)=O)C(=O)N[C@@H](CCSC)C(=O)N[C@@H](CCCCN)C(=O)N[C@H]4C(=O)N[C@@H](C)C(=O)N[C@H]5C(=O)N[C@@H](CS[C@H]4C)C(=O)N[C@@H](Cc4c[nH]cn4)C(=O)N[C@H](C(=O)N[C@@H](CO)C(=O)NCC(=O)N4CCC[C@H]4C(=O)N[C@@H](CCCNC(=N)N)C(=O)N4CCC[C@H]4C(=O)N4CCC[C@H]4C(=O)N[C@@H](Cc4c[nH]cn4)C(=O)N4CCC[C@H]4C(=O)N[C@@H](CCCNC(=N)N)C(=O)N[C@@H](CC(C)C)C(=O)O)CS[C@H]5C)CS[C@H]3C)CS[C@H]2C)NC(=O)[C@H](CC(C)C)NC1=O [GNT16SG]
[1]
  Activity against E. coli CECT101 relative to nisin: lower net activity than nisin
[1]; from MIC values
  Activity against E. coli relative to GNT16: more than four times lower activity
[2]; from MIC values
  Activity against L. lactis relative to GNT16-3rings (times higher): 2.5 times

## GIGKHVGKALKGLKGLLKGLGEC-NH2 [ADP2]
[3]; ref Iliæ et al.
  MIC: 1^f μM

## GNNRPVYIPQPRPPHPRL [Apidaecin 1b]
[4]; ref Berthold et al., [2013]
  MIC: 0.5^b μM
[4]; ref Berthold et al., [2013], listed as apidaecin 1b
  MIC: 0.5 µM

## Gu-ONNRPVYIPRPRPPHPRL-NH2 [Api 88, derivative of apidaecin 1b with increased positive charges and an amidated C-terminus]
[4]; ref Czihal et al., [2012]
  MIC: 0.2^b μM

## KKLFKKILKYL-NH2 [R-BP100]
[3]; ref Torcato et al.
  MIC: 0.9 ± 0.4^f μM

## Nisin + GKHVGKALKGLKGLLK
[5]
  cleaved bond: Val32-Dha33

## Ring ABC + NGKPRPYSPRPTSHPRPIRV
[6]
  cleaved bond: P-I

## Ring ABC + NGKPRPYSPRPTSHPRPIRV (bicyclic or more) [GNT8, nisin Ring ABC + drosocin tail]
[1]; Luria-Bertani broth, 96-well plate, 100 μl, 37°C, 18 h, OD600 every 30 min, peptide 0.25-32 μM, lowest concentration with no observed growth, repeated at least two times
  MIC value, E. coli CECT101: >16 µM
[1]
  Activity against E. coli CECT101 relative to nisin: lower net activity than nisin

## Ring ABC + NMKPPYLPRPRPPRRIYNR
[6]
  cleaved bond: Y-N and I-Y

## Ring ABC + NMKPRPRPPRRIYNR
[6]
  cleaved bond: N-R and Y-N and I-Y and R-I

## VDKPPYLPRPRPPRRIYNR-NH2 [Oncocin]
[4]; ref Knappe et al., [2010]
  MIC: 1.7^b μM
